Test results from patent US20230097157A1, “Bicyclic Pyridin-2-one and pyrimidin-4-one Derivatives Useful As a Factor XIa Inhibitors” (Janssen Pharmaceutica NV, priority 2021, published 2023).
Read-outs that look alike come from different tables or passages of the source.

Columns and labels:
Factor XIa = Factor XIa (Homo sapiens, UniProt P03951); assay: Factor XIa inhibition assay (FLINT) utilizing a fluorophore-quencher pair peptide substrate 5Fam-[…]-K5Tamra; type: biochemical; settings: kinetic (KIN) reads, read-out: FXIa KIN Inh IC50
Factor XIa, sequence (P03951 388-625 limits assumed): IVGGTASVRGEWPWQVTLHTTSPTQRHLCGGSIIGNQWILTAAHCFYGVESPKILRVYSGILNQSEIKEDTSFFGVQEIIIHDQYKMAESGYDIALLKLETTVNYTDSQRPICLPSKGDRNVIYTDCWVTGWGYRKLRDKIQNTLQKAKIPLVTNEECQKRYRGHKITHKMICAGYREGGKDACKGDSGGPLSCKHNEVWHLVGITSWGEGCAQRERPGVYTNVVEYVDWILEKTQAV
Factor XIa, sequence (P03951 19-387 partner limits assumed): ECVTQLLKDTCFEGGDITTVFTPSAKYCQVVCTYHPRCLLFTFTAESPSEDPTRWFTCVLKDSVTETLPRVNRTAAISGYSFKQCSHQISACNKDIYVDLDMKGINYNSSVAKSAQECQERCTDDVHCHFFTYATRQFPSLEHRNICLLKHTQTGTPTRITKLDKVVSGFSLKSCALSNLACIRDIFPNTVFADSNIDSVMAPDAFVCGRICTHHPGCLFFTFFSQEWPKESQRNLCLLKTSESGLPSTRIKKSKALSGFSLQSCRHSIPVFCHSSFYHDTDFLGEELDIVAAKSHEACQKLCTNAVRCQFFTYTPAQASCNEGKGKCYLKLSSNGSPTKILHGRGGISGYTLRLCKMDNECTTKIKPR
How it was run: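 Compounds were tested as 11-point 3-fold dilutions from 100 nM (2% DMSO). They were preincubated 30 min with FXIa in 50 mM Tris pH 7.5, 5 mM CaCl2, then 15 μM fluorophore-quencher peptide was added. Cleavage was followed at 485/520 nm over 30 min, and IC50 was derived by 4-parameter logistic fit.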

human plasma kallikrein = human plasma kallikrein (Homo sapiens, UniProt P03952); assay: Kallikrein inhibition assay (FLINT) utilizing a quenched AMC peptide substrate Z-Gly-Pro-Arg-AMC; type: biochemical; settings: kinetic (KIN) reads, read-out: Kallikrein KIN Inh IC50
human plasma kallikrein, sequence (P03952 391-638 limits assumed): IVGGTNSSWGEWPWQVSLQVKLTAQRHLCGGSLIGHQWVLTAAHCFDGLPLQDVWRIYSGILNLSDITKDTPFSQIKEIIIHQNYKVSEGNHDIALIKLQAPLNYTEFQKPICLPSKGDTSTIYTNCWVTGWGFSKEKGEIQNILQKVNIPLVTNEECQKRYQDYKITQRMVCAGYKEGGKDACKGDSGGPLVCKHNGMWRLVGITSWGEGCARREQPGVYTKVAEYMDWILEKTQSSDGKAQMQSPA
human plasma kallikrein, sequence (P03952 20-390 partner limits assumed): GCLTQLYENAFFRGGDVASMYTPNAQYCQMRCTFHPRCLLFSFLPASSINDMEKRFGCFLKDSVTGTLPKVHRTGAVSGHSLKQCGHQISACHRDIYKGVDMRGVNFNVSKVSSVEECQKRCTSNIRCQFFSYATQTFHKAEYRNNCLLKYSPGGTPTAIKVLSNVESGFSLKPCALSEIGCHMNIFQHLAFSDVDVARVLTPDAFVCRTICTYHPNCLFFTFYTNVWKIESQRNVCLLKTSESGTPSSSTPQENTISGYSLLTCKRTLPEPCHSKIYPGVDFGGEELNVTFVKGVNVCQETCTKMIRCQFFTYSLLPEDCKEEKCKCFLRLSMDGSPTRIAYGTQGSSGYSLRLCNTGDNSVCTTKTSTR
How it was run: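 IC50 from a 4-parameter logistic fit of % inhibition from 11 concentrations (3-fold, top 1 μM, 2% DMSO). Compound pre-incubated 30 min with 2 nM enzyme in Tris pH 7.5, NaCl, CaCl2, BSA, CHAPS, then 50 μM AMC peptide substrate added. Fluorescence (340/440 nm) followed every 5 min for 30 min at room temperature.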

Row | SMILES | IC50 (Factor XIa; values in nM) [nM] | IC50 (human plasma kallikrein; values in nM) [nM] | IC50 (Factor XIa; unit μM) [nM] | IC50 (human plasma kallikrein; unit μM) [nM]
1 | C[C@H]1C[C@@H](c2ncc(-c3ncc(N)nc3C3CC3)[nH]2)n2c1nc(-c1c(-n3cnnn3)ccc(Cl)c1F)cc2=O (relative stereo) [Example 91, (6*S,8*S)-6-(5-(5-Amino-3-cyclopropylpyrazin-2-yl)-1H-imidazol-2-yl)-2-(3-chloro-2-fluoro-6-(1H-tetrazol-1-yl)phenyl)-8-methyl-7,8-dihydropyrrolo[1,2-a]pyrimidin-4(6H)-one] | 39 | 168 | – | –
2 | C[C@H]1C[C@@H](c2ncc(-c3ccc4c(=O)cc[nH]c4c3)[nH]2)n2c1nc(-c1c(-n3cnnn3)ccc(Cl)c1F)cc2=O (relative stereo) [Example 102, 7-(2-((6*S,8*S)-2-(3-Chloro-2-fluoro-6-(1H-tetrazol-1-yl)phenyl)-8-methyl-4-oxo-4,6,7,8-tetrahydropyrrolo[1,2-a]pyrimidin-6-yl)-1H-imidazol-5-yl)quinolin-4(1H)-one] | 18.2 | 446 | – | –
3 | C[C@H]1C[C@@H](c2ncc(-c3ccc(N)nc3F)[nH]2)n2c1cc(-c1cc(Cl)ccc1-n1cnnn1)cc2=O (single isomer, unassigned) [Example 36] | – | – | 1500 | > 10000
4 | Nc1ncc(-c2cnc([C@H]3CC4(CC4)c4cc(-c5c(-n6cnnn6)ccc(Cl)c5F)cc(=O)n43)[nH]2)s1 [Example 17, (R)-3′-(5-(2-Aminothiazol-5-yl)-1H-imidazol-2-yl)-7′-(3-chloro-2-fluoro-6-(1H-tetrazol-1-yl)phenyl)-2′,3′-dihydro-5′H-spiro[cyclopropane-1,1′-indolizin]-5′-one] | 890 | – | – | 9050
5 | COc1nccc(-c2cnc([C@@H]3C[C@H](C)c4nc(-c5c(-n6cnnn6)ccc(Cl)c5F)cc(=O)n43)[nH]2)n1 (relative stereo) [Example 103, (6S,8S)-2-(3-chloro-2-fluoro-6-(1H-tetrazol-1-yl)phenyl)-6-(5-(2-methoxypyrimidin-4-yl)-1H-imidazol-2-yl)-8-methyl-7,8-dihydropyrrolo[1,2-a]pyrimidin-4(6H)-one] | 63.4 | 151 | – | –
6 | Nc1ccc(-c2cnc([C@H]3CC4(CC4)c4nc(-c5c(-n6cnnn6)ccc(Cl)c5F)cc(=O)n43)[nH]2)c(F)n1 [Example 133, (R)-6′-(5-(6-Amino-2-fluoropyridin-3-yl)-1H-imidazol-2-yl)-2′-(3-chloro-2-fluoro-6-(1H-tetrazol-1-yl)phenyl)-6′,7′-dihydro-4′H-spiro[cyclopropane-1,8′-pyrrolo[1,2-a]pyrimidin]-4′-one] | 231 | – | – | 4000
7 | C[C@H]1C[C@@H](c2ncc(-c3sc(N)nc3C(F)(F)F)[nH]2)n2c1cc(-c1c(-n3cnnn3)ccc(Cl)c1F)cc2=O [Example 27, (1S,3S)-3-(5-(2-Amino-4-(trifluoromethyl)thiazol-5-yl)-1H-imidazol-2-yl)-7-(3-chloro-2-fluoro-6-(1H-tetrazol-1-yl)phenyl)-1-methyl-2,3-dihydroindolizin-5(1H)-one] | 483 | – | – | 2400
8 | C[C@H]1CC(c2nc(F)c(-c3ccc(N)nc3)[nH]2)n2c1cc(-c1c(-n3cnnn3)ccc(Cl)c1F)cc2=O (stereo in doubt) [Example 40, (1*S,3*S)-3-(5-(6-Aminopyridin-3-yl)-4-fluoro-1H-imidazol-2-yl)-7-(3-chloro-2-fluoro-6-(1H-tetrazol-1-yl)phenyl)-1-methyl-2,3-dihydroindolizin-5(1H)-one] | 286 | – | – | 6400
9 | Cc1nc(N)sc1-c1cnc([C@@H]2C[C@H](C)c3cc(-c4c(-n5cnnn5)ccc(Cl)c4F)cc(=O)n32)[nH]1 [Example 26, (1S,3S)-3-(5-(2-Amino-4-methylthiazol-5-yl)-1H-imidazol-2-yl)-7-(3-chloro-2-fluoro-6-(1H-tetrazol-1-yl)phenyl)-1-methyl-2,3-dihydroindolizin-5(1H)-one] | 22.6 | – | – | 1300
10 | COC(=O)Nc1ccc(-c2cnc([C@@H]3C[C@H](C)c4cc(-c5c(-n6cnnn6)ccc(Cl)c5F)cc(=O)n43)[nH]2)cc1 (relative stereo) [Example 64, Methyl(4-(2-((1*S,3*S)-7-(3-chloro-2-fluoro-6-(1H-tetrazol-1-yl)phenyl)-1-methyl-5-oxo-1,2,3,5-tetrahydroindolizin-3-yl)-1H-imidazol-5-yl)phenyl)carbamate] | – | – | 1700 | 5400
11 | CC1C[C@H](c2nc(-c3cnc(N)cn3)c[nH]2)n2c1nc(-c1c(-n3cc(C(F)(F)F)nn3)ccc(Cl)c1F)cc2=O (stereo partly drawn) [Example 79, (6R)-6-(4-(5-aminopyrazin-2-yl)-1H-imidazol-2-yl)-2-(3-chloro-2-fluoro-6-(4-(trifluoromethyl)-1H-1,2,3-triazol-1-yl)phenyl)-8-methyl-7,8-dihydropyrrolo[1,2-a]pyrimidin-4(6H)-one] | 63.5 | 324 | – | –
12 | C[C@H]1C[C@@H](c2ncc(-c3cc(N)nn3C)[nH]2)n2c1cc(-c1c(-n3cnnn3)ccc(Cl)c1F)cc2=O [Example 15, (1S,3S)-3-(5-(3-Amino-1-methyl-1H-pyrazol-5-yl)-1H-imidazol-2-yl)-7-(3-chloro-2-fluoro-6-(1H-tetrazol-1-yl)phenyl)-1-methyl-2,3-dihydroindolizin-5(1H)-one] | 165 | – | – | 3200
13 | C[C@@H]1C[C@@H](c2ncc(-c3ccc(NC(=O)C4CC4)nc3)[nH]2)n2c1nc(-c1c(-n3cnnn3)ccc(Cl)c1F)cc2=O (stereo in doubt) [Example 122, N-(5-(2-((6*S,8*R)-2-(3-Chloro-2-fluoro-6-(1H-tetrazol-1-yl)phenyl)-8-methyl-4-oxo-4,6,7,8-tetrahydropyrrolo[1,2-a]pyrimidin-6-yl)-1H-imidazol-5-yl)pyridin-2-yl)cyclopropanecarboxamide] | 95 | – | – | 5600
14 | C[C@H]1CC(c2ncc(-c3cnnn3C)[nH]2)n2c1nc(-c1c(-n3cnnn3)ccc(Cl)c1F)cc2=O (stereo in doubt) [Example 136, (6*S,8*S)-2-(3-Chloro-2-fluoro-6-(1H-tetrazol-1-yl)phenyl)-8-methyl-6-(5-(1-methyl-1H-1,2,3-triazol-5-yl)-1H-imidazol-2-yl)-7,8-dihydropyrrolo[1,2-a]pyrimidin-4(6H)-one] | 566 | – | – | > 10000

Other lines, results leading:

Row | IC50 (Factor XIa; values in nM) [nM] | IC50 (human plasma kallikrein; values in nM) [nM] | IC50 (Factor XIa; unit μM) [nM] | IC50 (human plasma kallikrein; unit μM) [nM] | SMILES
15 | 0.4 | 20.6 | – | – | C[C@H]1C[C@@H](c2ncc(-c3ccc(N)nc3F)[nH]2)n2c1cc(-c1c(-n3cnnn3)ccc(Cl)c1F)cc2=O [Example 67, (1S,3S)-3-(5-(6-Amino-2-fluoropyridin-3-yl)-1H-imidazol-2-yl)-7-(3-chloro-2-fluoro-6-(1H-tetrazol-1-yl)phenyl)-1-methyl-2,3-dihydroindolizin-5(1H)-one]
16 | 8.3 | 15.6 | – | – | C[C@H]1C[C@@H](c2ncc(-c3cc4c(cn3)NC(=O)CC4)[nH]2)n2c1cc(-c1c(-n3cnnn3)ccc(Cl)c1F)cc2=O (single isomer, unassigned) [Example 92, 6-(2-((1S*,3S*)-7-(3-Chloro-2-fluoro-6-(1H-tetrazol-1-yl)phenyl)-1-methyl-5-oxo-1,2,3,5-tetrahydroindolizin-3-yl)-1H-imidazol-5-yl)-3,4-dihydro-1,7-naphthyridin-2(1H)-one]
17 | 1.6 | 7.8 | – | – | C[C@@H]1C[C@H](c2ncc(-c3ccc4c(c3)CC(=O)N4)[nH]2)n2c1nc(-c1c(-n3cnnn3)ccc(Cl)c1F)cc2=O (stereo in doubt) [Example 112, (6*R,8*R)-2-(3-Chloro-2-fluoro-6-(1H-tetrazol-1-yl)phenyl)-8-methyl-6-(5-(2-oxoindolin-5-yl)-1H-imidazol-2-yl)-7,8-dihydropyrrolo[1,2-a]pyrimidin-4(6H)-one]
18 | 0.3 | 14 | – | – | CO[C@@H]1C[C@H](c2ncc(-c3ccc(N)nc3F)[nH]2)n2c1cc(-c1c(-n3cnnn3)ccc(Cl)c1F)cc2=O (relative stereo) [Example 151, (1*R,3*R)-3-(5-(6-Amino-2-fluoropyridin-3-yl)-1H-imidazol-2-yl)-7-(3-chloro-2-fluoro-6-(1H-tetrazol-1-yl)phenyl)-1-methoxy-2,3-dihydroindolizin-5(1H)-one]
19 | 1.2 | 26.8 | – | – | COC(=O)Nc1ccc(-c2cnc([C@@H]3C[C@H](C)c4nc(-c5c(-n6cnnn6)ccc(Cl)c5F)cc(=O)n43)[nH]2)cn1 (stereo in doubt) [Example 116, Methyl (5-(2-((6*S,8*S)-2-(3-Chloro-2-fluoro-6-(1H-tetrazol-1-yl)phenyl)-8-methyl-4-oxo-4,6,7,8-tetrahydropyrrolo[1,2-a]pyrimidin-6-yl)-1H-imidazol-5-yl)pyridin-2-yl)carbamate]
20 | 1.1 | 42.5 | – | – | C[C@@H]1C[C@H](c2cnc(-c3ccc(N)nc3F)[nH]2)n2c1cc(-c1c(-n3cnnn3)ccc(Cl)c1F)cc2=O (stereo in doubt) [Example 55, (1R*,3R*)-3-(2-(6-Amino-2-fluoropyridin-3-yl)-1H-imidazol-5-yl)-7-(3-chloro-2-fluoro-6-(1H-tetrazol-1-yl)phenyl)-1-methyl-2,3-dihydroindolizin-5(1H)-one]
21 | 8.7 | 287 | – | – | C[C@H]1C[C@@H](c2ncc(-c3cnc(N)nc3)[nH]2)n2c1nc(-c1c(-n3cnnn3)ccc(Cl)c1F)cc2=O (stereo in doubt) [Example 119, (6*S,8*S)-6-(5-(2-Aminopyrimidin-5-yl)-1H-imidazol-2-yl)-2-(3-chloro-2-fluoro-6-(1H-tetrazol-1-yl)phenyl)-8-methyl-7,8-dihydropyrrolo[1,2-a]pyrimidin-4(6H)-one]
